These results are taken from ChEMBL document CHEMBL3608230, “Design, synthesis and RON receptor tyrosine kinase inhibitory activity of new head groups analogs of LCRF-0004” (Bioorg Med Chem Lett, 2015).

pIC50: −log10 of the molar value.

As usually defined, the pIC50 is −log10 of the IC50, conventionally taken in molar units. Read a low pIC50 as a high IC50.

Assay [1] addresses Macrophage-stimulating protein receptor (Homo sapiens, UniProt Q04912). The assay can be described thus: Inhibition of human RON.
For assay [2], the target named is Hepatocyte growth factor receptor (Homo sapiens, UniProt P08581). The assay can be described thus: Inhibition of c-Met phosphorylation in human MKN45 cells. Format: cell-based, MKN-45.
Sequence of Hepatocyte growth factor receptor (P08581 whole entry): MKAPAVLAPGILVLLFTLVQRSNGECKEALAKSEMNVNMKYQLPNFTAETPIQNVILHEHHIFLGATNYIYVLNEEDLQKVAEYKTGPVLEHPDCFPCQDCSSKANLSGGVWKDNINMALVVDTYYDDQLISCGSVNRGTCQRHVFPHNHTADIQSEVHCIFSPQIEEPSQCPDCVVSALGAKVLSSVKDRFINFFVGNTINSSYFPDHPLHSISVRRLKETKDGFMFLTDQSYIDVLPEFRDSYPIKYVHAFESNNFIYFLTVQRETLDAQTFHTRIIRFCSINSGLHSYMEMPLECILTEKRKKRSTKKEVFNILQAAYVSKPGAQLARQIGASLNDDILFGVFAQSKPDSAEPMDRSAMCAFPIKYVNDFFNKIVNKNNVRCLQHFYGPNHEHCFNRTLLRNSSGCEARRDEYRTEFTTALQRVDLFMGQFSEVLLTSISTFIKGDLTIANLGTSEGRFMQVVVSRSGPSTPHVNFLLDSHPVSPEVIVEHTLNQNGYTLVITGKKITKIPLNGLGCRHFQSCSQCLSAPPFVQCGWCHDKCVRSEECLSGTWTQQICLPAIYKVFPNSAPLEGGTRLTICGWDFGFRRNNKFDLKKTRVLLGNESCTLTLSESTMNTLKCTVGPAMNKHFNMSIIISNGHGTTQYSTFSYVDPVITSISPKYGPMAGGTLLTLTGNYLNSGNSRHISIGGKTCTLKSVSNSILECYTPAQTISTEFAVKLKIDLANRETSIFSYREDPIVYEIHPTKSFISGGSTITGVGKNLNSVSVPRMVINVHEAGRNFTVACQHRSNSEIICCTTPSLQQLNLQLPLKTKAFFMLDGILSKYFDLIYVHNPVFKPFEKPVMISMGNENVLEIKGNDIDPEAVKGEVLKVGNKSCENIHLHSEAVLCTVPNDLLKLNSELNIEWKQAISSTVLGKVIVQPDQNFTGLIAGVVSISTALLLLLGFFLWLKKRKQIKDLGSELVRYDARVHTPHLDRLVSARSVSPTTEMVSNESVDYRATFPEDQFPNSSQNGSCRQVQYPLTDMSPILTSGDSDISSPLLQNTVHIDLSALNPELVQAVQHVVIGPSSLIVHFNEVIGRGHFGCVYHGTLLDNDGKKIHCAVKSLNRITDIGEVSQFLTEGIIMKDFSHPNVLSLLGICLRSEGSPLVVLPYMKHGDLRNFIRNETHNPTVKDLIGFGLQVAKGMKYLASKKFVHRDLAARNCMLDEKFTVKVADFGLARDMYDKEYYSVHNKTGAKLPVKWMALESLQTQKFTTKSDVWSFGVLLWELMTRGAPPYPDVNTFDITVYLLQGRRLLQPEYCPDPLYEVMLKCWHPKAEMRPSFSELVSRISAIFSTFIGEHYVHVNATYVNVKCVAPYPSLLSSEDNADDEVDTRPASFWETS

Sequence of Macrophage-stimulating protein receptor (Q04912 25-304 limits assumed): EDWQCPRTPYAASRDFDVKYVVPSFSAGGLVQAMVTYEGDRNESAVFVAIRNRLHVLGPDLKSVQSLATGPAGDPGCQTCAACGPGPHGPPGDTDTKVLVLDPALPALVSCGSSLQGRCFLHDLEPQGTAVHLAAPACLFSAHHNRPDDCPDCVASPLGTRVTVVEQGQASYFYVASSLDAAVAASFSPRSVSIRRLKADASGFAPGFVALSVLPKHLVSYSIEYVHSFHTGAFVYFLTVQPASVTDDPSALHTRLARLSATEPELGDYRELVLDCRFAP
Sequence of Macrophage-stimulating protein receptor (Q04912 310-1400 limits assumed): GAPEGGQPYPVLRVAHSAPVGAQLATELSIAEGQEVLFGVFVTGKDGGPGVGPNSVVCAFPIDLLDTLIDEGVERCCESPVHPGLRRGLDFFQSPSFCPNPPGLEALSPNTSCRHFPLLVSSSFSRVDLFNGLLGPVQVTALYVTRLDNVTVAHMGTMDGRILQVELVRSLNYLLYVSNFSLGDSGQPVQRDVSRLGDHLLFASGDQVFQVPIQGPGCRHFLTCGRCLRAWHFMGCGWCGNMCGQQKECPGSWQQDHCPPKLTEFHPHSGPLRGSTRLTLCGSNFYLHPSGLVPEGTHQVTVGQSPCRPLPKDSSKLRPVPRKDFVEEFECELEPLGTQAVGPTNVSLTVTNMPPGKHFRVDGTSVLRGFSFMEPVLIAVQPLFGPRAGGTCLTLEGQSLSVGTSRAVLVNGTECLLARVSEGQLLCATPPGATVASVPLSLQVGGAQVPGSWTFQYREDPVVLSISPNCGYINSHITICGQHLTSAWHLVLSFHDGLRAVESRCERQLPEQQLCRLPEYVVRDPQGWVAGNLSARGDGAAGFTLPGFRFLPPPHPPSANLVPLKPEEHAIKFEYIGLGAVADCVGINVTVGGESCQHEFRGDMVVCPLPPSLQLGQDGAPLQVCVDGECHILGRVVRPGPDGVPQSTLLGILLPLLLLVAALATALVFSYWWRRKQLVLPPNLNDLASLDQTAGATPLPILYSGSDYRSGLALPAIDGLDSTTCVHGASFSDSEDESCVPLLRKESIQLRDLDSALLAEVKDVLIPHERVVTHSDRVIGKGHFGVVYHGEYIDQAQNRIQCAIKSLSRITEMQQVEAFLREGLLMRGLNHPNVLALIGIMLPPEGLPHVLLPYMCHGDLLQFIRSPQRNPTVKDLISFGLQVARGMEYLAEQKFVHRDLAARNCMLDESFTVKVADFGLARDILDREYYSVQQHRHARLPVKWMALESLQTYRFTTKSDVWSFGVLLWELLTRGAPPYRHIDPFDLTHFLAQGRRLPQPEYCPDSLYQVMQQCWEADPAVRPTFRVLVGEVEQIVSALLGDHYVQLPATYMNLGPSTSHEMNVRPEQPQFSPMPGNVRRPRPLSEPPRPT

For the compound `Cn1cnc(-c2cc3nccc(Oc4ccc(NC(=O)c5cc(-c6ccccc6)n(-c6ccccc6)c5)cc4F)c3s2)c1`, in assay [1], the pIC50 was 7.00. Still for that read-out and setting: with `COc1cccc(-c2c(C(=O)Nc3ccc(Oc4ccnc5cc(-c6cn(C)cn6)sc45)c(F)c3)cnn2-c2ccccc2)c1` the figure was 7.57.

`COc1ccc(-c2c(C(=O)Nc3ccc(Oc4ccnc5cc(-c6cn(C)cn6)sc45)c(F)c3)cnn2-c2ccccc2)cc1` gave a pIC50 in assay [2] of under 5.00. On the same count and under the same terms, with `Cn1cnc(-c2cc3nccc(Oc4ccc(NC(=O)c5cnn(-c6ccccc6)c5-c5ccncc5)cc4F)c3s2)c1` the figure was under 5.00.
